Assay results taken from US20200017496A1 (priority 2017, published 2020).
Where two headings read alike, the source gives them in different places.

Tested on: Enterobacter cloacae (ECL) isolates
Experiment: MIC of compounds alone and combined with antibacterials, broth microdilution (CLSI)
Format: cell-based
Settings: for MIC: Enterobacter cloacae
Procedure, shortened: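 First, log-phase suspensions are brought to a final 5·10^5 CFU/mL in cation-adjusted Mueller-Hinton broth. Then plates with compound, antibacterial, or both incubate 16-20 h at 35° C under ambient air. Finally, visual inspection gives the lowest growth-preventing concentration for each agent.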

C=CC1=C(C(=O)O)N2C(=O)[C@@H](NC(=O)/C(=N\OCC(=O)O)c3csc(N)n3)[C@H]2SC1 [FIX, Cefixime]
4 µg/mL: MIC ATB in combination (ECL UFR60, AF1 @ 4 μg/mL) | MIC ATB in combination (ECL UFR60, AF1 @ 8 μg/mL) | MIC (strain ECL UFR194 (OXA-48), ATB alone) | MIC ATB in combination (strain ECL UFR195, antibacterial combined with AF1 @ 4 μg/mL)
1 µg/mL: MIC ATB in combination (ECL P99, AF1 @ 8 μg/mL) | MIC ATB in combination (ECL UFR194, AF1 @ 4 μg/mL) | MIC ATB in combination (ECL UFR200, AF1 @ 4 μg/mL)
0.5 µg/mL: MIC ATB in combination (ECL 200322, AF1 @ 4 μg/mL) | MIC ATB in combination (ECL UFR85, AF1 @ 8 μg/mL) | MIC ATB in combination (ECL UFR200, AF1 @ 8 μg/mL)
8 µg/mL: MIC ATB in combination (ECL 260253, AF1 @ 4 μg/mL) | MIC ATB in combination (ECL 260253, AF1 @ 8 μg/mL) | MIC ATB in combination (ECL UFR13, AF1 @ 4 μg/mL) | MIC ATB in combination (ECL UFR13, AF1 @ 8 μg/mL) | MIC ATB in combination (ECL UFR14, AF1 @ 8 μg/mL) | MIC ATB in combination (ECL UFR85, AF1 @ 4 μg/mL) | MIC (strain ECL UFR12 (CTX-M-9, OXA-48), CLA @ 4 μg/ml+ ATB) | MIC (strain ECL UFR194 (OXA-48), CLA @ 4 μg/ml+ ATB)
>128 µg/mL: MIC ATB in combination (ECL 260033, AF1 @ 4 μg/mL)
2 µg/mL: MIC ATB in combination (ECL 260033, AF1 @ 8 μg/mL) | MIC ATB in combination (ECL UFR70, AF1 @ 8 μg/mL) | MIC ATB in combination (ECL UFR194, AF1 @ 8 μg/mL)
> 128 µg/mL: MIC (ATB alone, strain ECL UFR197 (TEM-1, CTX-M-15, OXA-1, OXA-48)) | MIC (ATB alone, strain ECL UFR198 (TEM-1, SHV-12, CTX-M-15, DHA-1, OXA-1, OXA-48)) | MIC (ATB combined with CLA @ 4 μg/ml, strain ECL UFR198 (TEM-1, SHV-12, CTX-M-15, DHA-1, OXA-1, OXA-48)) | MIC (strain ECL 2185D (OXA-163), ATB alone) | MIC (strain ECL 2185D (OXA-163), CLA @ 4 μg/ml+ ATB) | MIC (strain ECL 190310 (AmpC), ATB alone) | MIC (strain ECL 190310 (AmpC), CLA @ 4 μg/ml+ ATB) | MIC (strain ECL 200138 (AmpC), ATB alone) | MIC (strain ECL 200138 (AmpC), CLA @ 4 μg/ml+ ATB) | MIC (strain ECL 200322 (TEM-1, CTX-M-15, OXA-1), ATB alone) | MIC (strain ECL 260033 (AmpC), ATB alone) | MIC (strain ECL 260033 (AmpC), CLA @ 4 μg/ml+ ATB) | MIC (strain ECL 260253 (TEM-1, KPC-3), ATB alone) | MIC (strain ECL 260323 (AmpC), ATB alone) | MIC (strain ECL 260323 (AmpC), CLA @ 4 μg/ml+ ATB) | MIC (strain ECL 260508 (TEM-1, CTX-M-15), ATB alone) | MIC (strain ECL NEM146383 (AmpC), ATB alone) | MIC (strain ECL NEM146383 (AmpC), CLA @ 4 μg/ml+ ATB) | MIC (strain ECL P99 (AmpC), ATB alone) | MIC (strain ECL P99 (AmpC), CLA @ 4 μg/ml+ ATB) | MIC (strain ECL UFR13 (TEM-1, SHV-12, CTX-M-9, OXA-48), ATB alone) | MIC (strain ECL UFR14 (TEM-1, SHV-12, CTX-M-15, DHA-1, OXA-1, OXA-48), ATB alone) | MIC (strain ECL UFR14 (TEM-1, SHV-12, CTX-M-15, DHA-1, OXA-1, OXA-48), CLA @ 4 μg/ml+ ATB) | MIC (strain ECL UFR60 (TEM-1, CTX-M-15, KPC-2), ATB alone) | MIC (strain ECL UFR70 (TEM-1, CTX-M-15, CMY-2, OXA-1, Porin loss), ATB alone) | MIC (strain ECL UFR70 (TEM-1, CTX-M-15, CMY-2, OXA-1, Porin loss), CLA @ 4 μg/ml+ ATB) | MIC (strain ECL UFR84 (TEM-1, AmpC, OXA-1), ATB alone) | MIC (strain ECL UFR84 (TEM-1, AmpC, OXA-1), CLA @ 4 μg/ml+ ATB) | MIC (strain ECL UFR85 (TEM-1, CTX-M-15, AmpC), ATB alone) | MIC (strain ECL UFR85 (TEM-1, CTX-M-15, AmpC), CLA @ 4 μg/ml+ ATB) | MIC (strain ECL UFR195 (TEM-1, CTX-M-15, OXA-1, OXA-48), ATB alone) | MIC (strain ECL UFR195 (TEM-1, CTX-M-15, OXA-1, OXA-48), CLA @ 4 μg/ml+ ATB) | MIC (strain ECL UFR196 (TEM-1, CTX-M-15, OXA-1, OXA-48), ATB alone) | MIC (strain ECL UFR196 (TEM-1, CTX-M-15, OXA-1, OXA-48), CLA @ 4 μg/ml+ ATB) | MIC (strain ECL UFR200 (TEM-1, SHV-12, KPC-2), ATB alone)
512 µg/mL: MIC (strain ECL 190408 (TEM-1, CTX-M-15, OXA-1), ATB alone)
<=0.25 μg/mL: MIC ATB in combination (ECL 260508, AF1 @ 4 μg/mL) | MIC ATB in combination (ECL 260508, AF1 @ 8 μg/mL) | MIC ATB in combination (ECL UFR12, AF1 @ 4 μg/mL) | MIC ATB in combination (ECL UFR12, AF1 @ 8 μg/mL)
64 µg/mL: MIC ATB in combination (ECL 200138, AF1 @ 4 μg/mL) | MIC ATB in combination (ECL 260323, AF1 @ 4 μg/mL) | MIC ATB in combination (ECL UFR84, AF1 @ 4 μg/mL) | MIC (strain ECL 260253 (TEM-1, KPC-3), CLA @ 4 μg/ml+ ATB, read-out: MIC)
0.25 µg/mL: MIC ATB in combination (ECL 200322, AF1 @ 8 μg/mL)
32 µg/mL: MIC ATB in combination (ECL 260323, AF1 @ 8 μg/mL) | MIC ATB in combination (ECL NEM146383, AF1 @ 4 μg/mL) | MIC (strain ECL 260508 (TEM-1, CTX-M-15), CLA @ 4 μg/ml+ ATB)
128 µg/mL: MIC (ATB combined with CLA @ 4 μg/ml, strain ECL UFR197 (TEM-1, CTX-M-15, OXA-1, OXA-48), read-out: MIC) | MIC (strain ECL 190408 (TEM-1, CTX-M-15, OXA-1), CLA @ 4 μg/ml+ ATB, read-out: MIC) | MIC (strain ECL UFR13 (TEM-1, SHV-12, CTX-M-9, OXA-48), CLA @ 4 μg/ml+ ATB, read-out: MIC) | MIC (strain ECL UFR60 (TEM-1, CTX-M-15, KPC-2), CLA @ 4 μg/ml+ ATB, read-out: MIC)
16 µg/mL: MIC ATB in combination (ECL 200138, AF1 @ 8 μg/mL) | MIC ATB in combination (ECL NEM146383, AF1 @ 8 μg/mL) | MIC ATB in combination (ECL P99, AF1 @ 4 μg/mL) | MIC ATB in combination (ECL UFR14, AF1 @ 4 μg/mL) | MIC ATB in combination (ECL UFR70, AF1 @ 4 μg/mL) | MIC ATB in combination (ECL UFR84, AF1 @ 8 μg/mL) | MIC (strain ECL UFR12 (CTX-M-9, OXA-48), ATB alone) | MIC (strain ECL UFR200 (TEM-1, SHV-12, KPC-2), CLA @ 4 μg/ml+ ATB)
